“And” between values parts separate entries of the source, which are not always exact repeats. Equal entries are not always repeated. Structures can show the parent of a compound that is named as a salt. Where two headings read alike, the source gives them in different places.
Experiments:
in vitro [1] = settings: human
DENV-2 = DENV-2 infection assay / secondary screen (E protein staining); format: cell-based, dengue virus serotype 2; settings: Dengue virus, DENV2, Huh-7, 24 h; for inhibition at 10 µM: read-out: % inhibition (DENV-2 screen)
SFV [2] = experiment: microbe, parasite or virus in culture; format: cell-based, Semliki Forest virus; settings: for IC50 / inhibition at 10 µM: Semliki Forest virus; for IC50: HeLa Kyoto; for inhibition at 10 µM: M-HeLa, read-out: % inhibition (SFV screen); for % inhibition (SFV screen): 10 µM
HeLa Kyoto cells [3] = settings: human
in vitro [4] = settings: human, % viability (SFV screen)
DENV-1 = experiment: microbe, parasite or virus in culture; format: cell-based, dengue virus; settings: Dengue virus, DENV1, Huh-7, read-out: IC50 DENV-1
HSV-1 = experiment: microbe, parasite or virus in culture; format: cell-based, herpes simplex virus 1; settings: Human alphaherpesvirus 1, Vero, 8 h, read-out: IC50 HSV (Vero)
HCV = experiment: microbe, parasite or virus in culture; format: cell-based, hepatitis C virus; settings: Hepatitis C virus, Huh7.5, read-out: IC50 HCV
VACV = experiment: microbe, parasite or virus in culture; format: cell-based, vaccinia virus
VSV VLP = experiment: microbe, parasite or virus in culture; format: cell-based, vesicular stomatitis virus; settings: Vesicular stomatitis virus, HeLa Kyoto, 24 h, read-out: IC50 VSV
Huh7 cells [5] = experiment: MTT assay, Huh7 cells
SFV [6] = format: cell-based, Semliki Forest virus
DENV-3 = experiment: microbe, parasite or virus in culture; format: cell-based, dengue virus; settings: Dengue virus, DENV3, Huh-7, read-out: IC50 DENV-3
EBOV VLP = experiment: microbe, parasite or virus in culture; format: cell-based, Ebola virus; settings: Zaire ebolavirus, HeLa Kyoto, 48 h, read-out: IC50 EBOV
ZIKV = experiment: microbe, parasite or virus in culture; format: cell-based, Zika virus; settings: Zika virus, Huh-7, read-out: IC50 ZIKV
HeLa Kyoto cells [7] = settings: 10 µM
viruses/VLPs tested = format: cell-based
SINV = experiment: microbe, parasite or virus in culture; format: cell-based, Sindbis virus; settings: Sindbis virus, HeLa Kyoto, read-out: IC50 SINV
YF17D = experiment: organism not typed; format: cell-based, yellow fever 17D; settings: Huh-7, read-out: IC50 YF17D
H5N1 VLP = experiment: microbe, parasite or virus in culture; format: cell-based, influenza H5N1; settings: Influenza A virus, H5N1, HeLa Kyoto, 48 h, read-out: IC50 H5N1
RABV VLP = experiment: microbe, parasite or virus in culture; format: cell-based, rabies virus; settings: Lyssavirus rabies, HeLa Kyoto, 24 h, read-out: IC50 RABV
Huh7 cells [8] = settings: 10 µM

CCOC(=O)C1=C(C)NC(C)=C(C(=O)OCC)C1c1ccccc1/C=C/C(=O)OC(C)(C)C [Lacidipine]
viability at 10 µM (in vitro [1]): 75.7% | inhibition at 10 µM (DENV-2): 98% | IC50 (SFV [2]; 7 h, read-out: IC50 SFV): 23.7 µM | inhibition at 10 µM (SFV [2]; 7 h): 79.8% | TC50 SFV (7h) (HeLa Kyoto cells [3]; 7 h): 27700 µM | viability at 10 µM (in vitro [4]): 80.6%

OC(c1cc(C(F)(F)F)nc2c(C(F)(F)F)cccc12)C1CCCCN1 (stereo not shown) [Mefloquine hydrochloride]
viability at 10 µM (in vitro [1]): 7.25% | inhibition at 10 µM (DENV-2): -22.1% | inhibition at 10 µM (SFV [2]; 7 h): 94.3% | viability at 10 µM (in vitro [4]): 72.7%

CSc1ccc2c(c1)C(N1CCN(C)CC1)Cc1ccccc1S2 (stereo not shown) [Methiothepin mesylate]
viability at 10 µM (in vitro [1]): 0.1% | inhibition at 10 µM (SFV [2]; 7 h): 84% | viability at 10 µM (in vitro [4]): 66.6%

O=C1c2c(O)ccc(O)c2C(=O)c2c(NCCNCCO)ccc(NCCNCCO)c21 [Mitoxantrone, Mitoxantrone dihydrochloride]
IC50 (DENV-1): 5.6 µM | IC50 (HSV-1): 6.8 µM | IC50 (HCV): 2.7 µM | IC50 VACV (VACV): No inhibition | IC50 (VSV VLP): 0.6 µM | viability at 10 µM (in vitro [1]): 11.2% | inhibition at 10 µM (DENV-2): 99.4% | IC50 (DENV-2; read-out: IC50 DENV-2 (7 + 17 h)): 2 µM | IC50 (DENV-2; read-out: IC50 DENV-2 (24 h)): 2.1 µM | TC50 DENV-2 (7 + 17 h) (Huh7 cells [5]; Huh7, compounds 7 h then compound-free media 17 h): 7.9 µM | TC50 DENV-2 (24 h) (Huh7 cells [5]; Huh7, compounds 24 h): 4.6 µM | % inhibition (SFV screen) (SFV [2]): 59.01% and 85.19% | IC50 (SFV [2]; read-out: IC50 SFV (7 h)): 7 µM | Activity when added before SFV or 30 and 60 min after internalisation (SFV [6]): progressive and more dramatic decrease in activity | Time of Addition (SFV [6]): Before and after fusion | IC50 (DENV-3): 6.3 µM | IC50 (EBOV VLP): 0.1 µM | IC50 (ZIKV): ~25 µM | % viability (SFV screen) (HeLa Kyoto cells [7]; human): 88.92% | Viruses Inhibited (viruses/VLPs tested): Unclear pattern | IC50 (SINV): 9.9 µM | IC50 (YF17D): 2.2 µM | TC50 SFV (7 h) (HeLa Kyoto cells [3]): 43.2 µM | TC50 SFV (7h) (HeLa Kyoto cells [3]): 43200 µM | viability at 10 µM (in vitro [4]): 88.5% | IC50 (H5N1 VLP): 2.8 µM | IC50 (RABV VLP): < 0.5 µM

C1CCC(C(CC2CCCCN2)C2CCCCC2)CC1 (stereo not shown) [Perhexiline maleate]
viability at 10 µM (in vitro [1]): 1.42% | inhibition at 10 µM (SFV [2]; 7 h): 101% | viability at 10 µM (in vitro [4]): 62.9%

CN1CCN(CCCN2c3ccccc3Sc3ccc(Cl)cc32)CC1 [Prochloperazine, Prochlorperazine dimaleate]
viability at 10 µM (in vitro [1]): 46.7% | inhibition at 10 µM (DENV-2): 98.9% | inhibition at 10 µM (SFV [2]; 7 h): 73.3% | TC50 SFV (7h) (HeLa Kyoto cells [3]): 22700 µM | viability at 10 µM (in vitro [4]): 84%

O=C1NCCN1CCN1CCC(c2cn(-c3ccc(F)cc3)c3ccc(Cl)cc23)CC1 [Sertindole]
viability at 10 µM (in vitro [1]): 26.6% | inhibition at 10 µM (SFV [2]; 7 h): 67.2% | viability at 10 µM (in vitro [4]): 105%

CC/C(=C(\c1ccccc1)c1ccc(OCCN(C)C)cc1)c1ccccc1 [Tamoxifen citrate]
inhibition at 10 µM (SFV [2]; 7 h): 98.3% | viability at 10 µM (in vitro [4]): 61.7%

C/C=C(/C)C(=O)O[C@H]1C(C)=C2[C@H]([C@@H]1OC(=O)CCCCCCC)[C@@](C)(OC(C)=O)C[C@H](OC(=O)CCC)[C@@]1(O)[C@H]2OC(=O)[C@@]1(C)O [Thapsigargin]
viability at 10 µM (in vitro [1]): 53.3% | inhibition at 10 µM (DENV-2): 98% | inhibition at 10 µM (SFV [2]; 7 h): 83.4% | viability at 10 µM (in vitro [4]): 103%

CCSc1ccc2c(c1)N(CCCN1CCN(C)CC1)c1ccccc1S2.O=C(O)CC(O)C(=O)O.O=C(O)CC(O)C(=O)O [Thiethylperazine dimalate]
% viability (DENV-2 screen) (Huh7 cells [8]): 0.15% | % inhibition (SFV screen) (SFV [2]): 91.68% | % viability (SFV screen) (HeLa Kyoto cells [7]): 92.47%

CSc1ccc2c(c1)N(CCC1CCCCN1C)c1ccccc1S2 (stereo not shown) [Thioridazine hydrochloride]
viability at 10 µM (in vitro [1]): 5.89% | inhibition at 10 µM (SFV [2]; 7 h): 89.1% | viability at 10 µM (in vitro [4]): 71.3%

C=C(NC(=O)C(=C)NC(=O)c1csc(C2=N[C@@H]3c4csc(n4)[C@H]4NC(=O)c5csc(n5)[C@H]([C@](C)(O)[C@@H](C)O)NC(=O)[C@H]5CSC(=N5)/C(=C/C)NC(=O)[C@H]([C@@H](C)O)NC(=O)c5csc(n5)[C@]3(CC2)NC(=O)[C@H](C)NC(=O)C(=C)NC(=O)[C@H](C)NC(=O)[C@H]([C@@H](C)CC)N[C@@H]2C=Cc3c([C@H](C)O)cc(nc3[C@H]2O)C(=O)O[C@@H]4C)n1)C(N)=O [Thiostrepton]
viability at 10 µM (in vitro [1]): 18.7% | inhibition at 10 µM (SFV [2]; 7 h): 65.9% | viability at 10 µM (in vitro [4]): 88.5%

Cc1ccc(S(=O)(=O)NC(=O)NN2CCCCCC2)cc1 [Tolazamide]
viability at 10 µM (in vitro [1]): 116% | inhibition at 10 µM (DENV-2): 36.5% | inhibition at 10 µM (SFV [2]; 7 h): 101% | viability at 10 µM (in vitro [4]): 113%

CN1CCN(CCCN2c3ccccc3Sc3ccc(C(F)(F)F)cc32)CC1 [Trifluoperazine dihydrochloride]
viability at 10 µM (in vitro [1]): 0.13% | inhibition at 10 µM (SFV [2]; 7 h): 96.5% | viability at 10 µM (in vitro [4]): 93.9%
